Consider twelve compounds from ChEMBL document CHEMBL3739275, “Tryptophan dendrimers that inhibit HIV replication, prevent virus entry and bind to the HIV envelope glycoproteins gp120 and gp41” (Eur J Med Chem, 2015).

Data set [1] relates to Human immunodeficiency virus 2. Briefly: Antiviral activity against HIV2 ROD infected in human CEM cells assessed as inhibition of virus-induced giant cell formation after 4 to 5 days by microscopic analysis. Conditions: Human immunodeficiency virus 2, ISOLATE ROD, CCRF-CEM. The class given is functional, organism-based.
Data set [2] has as its system Human immunodeficiency virus 1. Briefly: Binding affinity to recombinant HIV1 HxB2 gp-41 at 50 uM by surface plasmon resonance assay. (In general: Surface plasmon resonance follows binding to a sensor surface in real time, without labels.)
Data set [3] relates to Human immunodeficiency virus 1. Briefly: Antiviral activity against HIV1 3B infected in human CEM cells assessed as inhibition of virus-induced giant cell formation after 4 to 5 days by microscopic analysis. The class given is functional, organism-based. Conditions: CCRF-CEM; for EC50: Human immunodeficiency virus 1, 3B.
Data set [4] in a line: Binding affinity to recombinant HIV1 3B gp-120 expressed in CHO cells at 50 uM by surface plasmon resonance assay. Particulars: Human immunodeficiency virus 1.
A short description of data set [5]: Cytotoxicity against human CEM cells assessed as cell count after 3 days. Conditions: CEM cells (CCRF-CEM). It is filed as cell-based.
Data set [6] can be described thus: Binding affinity to recombinant HIV1 3B gp-120 expressed in CHO cells by surface plasmon resonance assay. On the set-up: species or system Human immunodeficiency virus 1. Conditions: read-out: Kd(app).
Data set [7] has as its system Human immunodeficiency virus 1. Briefly: Antiviral activity against HIV1 NL4.3 infected in human MT4 cells assessed as inhibition of virus-induced cytopathic effect after 5 days by MTS/phenazine ethosulfate method. The class given is functional, organism-based. Conditions: Human immunodeficiency virus 1, NL4.3, MT4, 120 h. On the technique in general: Protection from cytopathic effect is a common read-out in antiviral testing.

Data set [8] deals with Human immunodeficiency virus 1. Briefly: Antiviral activity against HIV1 3B infected in human MT4 cells assessed as inhibition of early viral infection to host cells by measuring p24 production at 10 uM treated 1 to 25 hrs of post infection by ELISA. It is filed as functional, organism-based. On the technique in general: In an ELISA, binding on a coated surface is turned into a signal by an enzyme label.

Data set [9] can be described thus: Selectivity index, ratio of CC50 for human CEM cells to EC50 for HIV1 3B. The class given is toxicity, cell-based, CCRF-CEM. Particulars: read-out: Ratio CC50/EC50.

The source made the active and inactive calls. The calls are words filed in the database; no cut-off is given here.

Broadly, the EC50 is the concentration at which the effect is half-maximal. The CC50 is the concentration that lowers cell viability or growth by half. For the compound `O=C(CCC(CCC(=O)N[C@@H](Cc1c[nH]c2ccccc12)C(=O)O)(CCC(=O)N[C@H](Cc1c[nH]c2ccccc12)C(=O)O)NC(=O)CCC(CCC(=O)NC(CCC(=O)N[C@@H](Cc1c[nH]c2ccccc12)C(=O)O)(CCC(=O)N[C@@H](Cc1c[nH]c2ccccc12)C(=O)O)CCC(=O)N[C@H](Cc1c[nH]c2ccccc12)C(=O)O)(CCC(=O)NC(CCC(=O)N[C@@H](Cc1c[nH]c2ccccc12)C(=O)O)(CCC(=O)N[C@H](Cc1c[nH]c2ccccc12)C(=O)O)CCC(=O)N[C@H](Cc1c[nH]c2ccccc12)C(=O)O)[N+](=O)[O-])N[C@@H](Cc1c[nH]c2ccccc12)C(=O)O`, the EC50 in data set [1] came to 44 µM; in [3] it was 9.9 µM. In addition, the result in data set [2] and in [4] was Active. The Activity result in data set [3] was “Dose-dependent effect”. Besides, the CC50 at 72 h in data set [5] is over 100 µM.

`CCc1c(CNc2nc(N[C@@H](Cc3c[nH]c4ccccc34)C(=O)O)nc(N[C@@H](Cc3c[nH]c4ccccc34)C(=O)O)n2)c(CC)c(CNc2nc(N[C@@H](Cc3c[nH]c4ccccc34)C(=O)O)nc(N[C@@H](Cc3c[nH]c4ccccc34)C(=O)O)n2)c(CC)c1CNc1nc(N[C@@H](Cc2c[nH]c3ccccc23)C(=O)O)nc(N[C@@H](Cc2c[nH]c3ccccc23)C(=O)O)n1`: the Kd in data set [6] came out at 14 µM. The CC50 at 72 h in data set [5] was over 250 µM.

With `O=C(CCC(CCC(=O)N[C@@H](Cc1c[nH]c2ccccc12)C(=O)O)(CCC(=O)N[C@H](Cc1c[nH]c2ccccc12)C(=O)O)NC(=O)CN(CC(=O)NC(CCC(=O)N[C@@H](Cc1c[nH]c2ccccc12)C(=O)O)(CCC(=O)N[C@H](Cc1c[nH]c2ccccc12)C(=O)O)CCC(=O)N[C@H](Cc1c[nH]c2ccccc12)C(=O)O)CC(=O)NC(CCC(=O)N[C@H](Cc1c[nH]c2ccccc12)C(=O)O)(CCC(=O)N[C@H](Cc1c[nH]c2ccccc12)C(=O)O)CCC(=O)N[C@H](Cc1c[nH]c2ccccc12)C(=O)O)N[C@@H](Cc1c[nH]c2ccccc12)C(=O)O`, the EC50 in data set [7] amounted to 2500 nM; in [3], 3.2 µM. Besides, the outcome in data set [2], in data set [8] and in data set [4] was Active. For the same compound, the Activity result in data set [3] is “Dose-dependent effect”. The CC50 at 72 h in data set [5] is 59 µM.

With `CCc1c(CC(=O)NC(CCC(=O)O)(CCC(=O)O)CCC(=O)O)c(CC)c(CC(=O)NC(CCC(=O)O)(CCC(=O)O)CCC(=O)O)c(CC)c1CC(=O)NC(CCC(=O)O)(CCC(=O)O)CCC(=O)O`, the EC50 in data set [1] and in [3] was over 250 µM throughout. Further, in data set [5], the CC50 at 72 h is over 250 µM.

As for `O=C(CCC(CCC(=O)N[C@@H](Cc1c[nH]c2ccccc12)C(=O)O)(CCC(=O)N[C@H](Cc1c[nH]c2ccccc12)C(=O)O)NC(=O)[C@H]1C[C@@H](C(=O)NC(CCC(=O)N[C@@H](Cc2c[nH]c3ccccc23)C(=O)O)(CCC(=O)N[C@H](Cc2c[nH]c3ccccc23)C(=O)O)CCC(=O)N[C@H](Cc2c[nH]c3ccccc23)C(=O)O)C[C@@H](C(=O)NC(CCC(=O)N[C@@H](Cc2c[nH]c3ccccc23)C(=O)O)(CCC(=O)N[C@H](Cc2c[nH]c3ccccc23)C(=O)O)CCC(=O)N[C@H](Cc2c[nH]c3ccccc23)C(=O)O)C1)N[C@@H](Cc1c[nH]c2ccccc12)C(=O)O`, the selectivity ratio in data set [9] was over 55. In addition, the results for the EC50 in [7] and in data set [3] were 2000 nM and 4.5 µM, respectively. Also, the result in data set [2] and in data set [4] was Active. In addition, the Activity result in data set [3] was “Dose-dependent effect”. The CC50 at 72 h in data set [5] is over 250 µM.

Regarding `O=C(O)CCC(CCC(=O)O)(CCC(=O)O)NC(=O)C[C@H]1C[C@@H](CC(=O)NC(CCC(=O)O)(CCC(=O)O)CCC(=O)O)C[C@@H](CC(=O)NC(CCC(=O)O)(CCC(=O)O)CCC(=O)O)C1`, the EC50 in data set [1] and in [3] was over 250 µM throughout. Further, the CC50 at 72 h in data set [5] is over 250 µM.

On to `C[C@H](Cn1cnc2c(N)ncnc21)OCP(=O)(O)O` [TENOFOVIR ANHYDROUS], for which, in data set [5], the CC50 at 72 h is over 100 µM.

Turning to `O=C(O)CCC(CCC(=O)O)(CCC(=O)O)NC(=O)CN(CCN(CC(=O)NC(CCC(=O)O)(CCC(=O)O)CCC(=O)O)CC(=O)NC(CCC(=O)O)(CCC(=O)O)CCC(=O)O)CC(=O)NC(CCC(=O)O)(CCC(=O)O)CCC(=O)O`, the EC50 in [1] and in [3] was over 250 µM in each case. For the same compound, in data set [5], the CC50 at 72 h is over 250 µM.

As for `CCc1c(CC(=O)NC(CCC(=O)N[C@@H](Cc2c[nH]c3ccccc23)C(=O)O)(CCC(=O)N[C@@H](Cc2c[nH]c3ccccc23)C(=O)O)CCC(=O)N[C@H](Cc2c[nH]c3ccccc23)C(=O)O)c(CC)c(CC(=O)NC(CCC(=O)N[C@@H](Cc2c[nH]c3ccccc23)C(=O)O)(CCC(=O)N[C@H](Cc2c[nH]c3ccccc23)C(=O)O)CCC(=O)N[C@H](Cc2c[nH]c3ccccc23)C(=O)O)c(CC)c1CC(=O)NC(CCC(=O)N[C@@H](Cc1c[nH]c2ccccc12)C(=O)O)(CCC(=O)N[C@H](Cc1c[nH]c2ccccc12)C(=O)O)CCC(=O)N[C@H](Cc1c[nH]c2ccccc12)C(=O)O`, the result in [2] was Active. In addition, in data set [3], the Activity result is “Dose-dependent effect” and the EC50 came to 6.2 µM. The result in data set [4] was Active. For the same compound, the half-maximal cytotoxic concentration (CC50) at 72 h in data set [5] was over 100 µM.

Regarding `CN[C@@H]1[C@H](O[C@@H]2OC[C@@H](O)[C@H](O)[C@H]2O)[C@@H](O)[C@H](O[C@H]2c3cc(C)c(C(=O)N[C@H](C)C(=O)O)c(O)c3-c3c(cc4c(c3O)C(=O)c3cc(OC)cc(O)c3C4=O)[C@@H]2O)O[C@@H]1C` [PRADIMICIN A], the CC50 at 72 h in data set [5] is over 100 µM.

Take `O=C(CCC(CCC(=O)N[C@@H](Cc1c[nH]c2ccccc12)C(=O)O)(CCC(=O)N[C@@H](Cc1c[nH]c2ccccc12)C(=O)O)NC(=O)CN(CCN(CC(=O)NC(CCC(=O)N[C@@H](Cc1c[nH]c2ccccc12)C(=O)O)(CCC(=O)N[C@@H](Cc1c[nH]c2ccccc12)C(=O)O)CCC(=O)N[C@H](Cc1c[nH]c2ccccc12)C(=O)O)CC(=O)NC(CCC(=O)N[C@@H](Cc1c[nH]c2ccccc12)C(=O)O)(CCC(=O)N[C@H](Cc1c[nH]c2ccccc12)C(=O)O)CCC(=O)N[C@H](Cc1c[nH]c2ccccc12)C(=O)O)CC(=O)NC(CCC(=O)N[C@@H](Cc1c[nH]c2ccccc12)C(=O)O)(CCC(=O)N[C@H](Cc1c[nH]c2ccccc12)C(=O)O)CCC(=O)N[C@H](Cc1c[nH]c2ccccc12)C(=O)O)N[C@@H](Cc1c[nH]c2ccccc12)C(=O)O`: the EC50 is at least 30 µM in data set [1] and 11.3 µM in data set [3]. Besides, the outcome in data set [2] and in [4] was Active. Besides, in [3], the Activity entry was “Dose-dependent effect”. The CC50 at 72 h in data set [5] is over 30 µM.

Turning to `O=C(CCC(CCC(=O)N[C@@H](Cc1c[nH]c2ccccc12)C(=O)O)(CCC(=O)N[C@H](Cc1c[nH]c2ccccc12)C(=O)O)NC(=O)c1cc(C(=O)NC(CCC(=O)N[C@@H](Cc2c[nH]c3ccccc23)C(=O)O)(CCC(=O)N[C@H](Cc2c[nH]c3ccccc23)C(=O)O)CCC(=O)N[C@H](Cc2c[nH]c3ccccc23)C(=O)O)cc(C(=O)NC(CCC(=O)N[C@@H](Cc2c[nH]c3ccccc23)C(=O)O)(CCC(=O)N[C@H](Cc2c[nH]c3ccccc23)C(=O)O)CCC(=O)N[C@H](Cc2c[nH]c3ccccc23)C(=O)O)c1)N[C@@H](Cc1c[nH]c2ccccc12)C(=O)O`, the EC50 worked out at 1300 nM in [7] and 2.6 µM in [3]. Further, the outcome in [2] and in [4] was Active. Besides, the Activity result in data set [3] was “Dose-dependent effect”. Also, the CC50 at 72 h in data set [5] turned out to be 53 µM.
